Assay results from patent US20070049564A1 (Wyeth, priority 2005, published 2007).
In brackets after ≈: the same amount, converted by molar mass. Like-named read-outs stand apart in the source and are kept apart here.

Key:
[1] = system: E. coli GC 2231; test: MIC, broth microdilution; details: Escherichia coli
[2] = system: E. coli GC 2235; test: MIC, broth microdilution; details: Escherichia coli
[3] = system: E. coli GC 2232; test: MIC, broth microdilution; details: Escherichia coli
[4] = system: E. coli GC 2270; test: MIC, broth microdilution; details: Escherichia coli
[5] = system: E. coli GC 2271; test: MIC, broth microdilution; details: Escherichia coli
[6] = system: E. coli GC 4559; test: MIC, broth microdilution; details: Escherichia coli
[7] = system: E. coli GC 4560; test: MIC, broth microdilution; details: Escherichia coli
[8] = system: E. coli GC 3226; test: MIC, broth microdilution; details: Escherichia coli
[9] = system: E. coli GC 2203; test: MIC, broth microdilution; details: Escherichia coli
[10] = system: S. typhimurium GC 2172; test: MIC, broth microdilution; details: Salmonella enterica, TYPHIMURIUM
[11] = system: P. aeruginosa GC 2214; test: MIC, broth microdilution; details: Pseudomonas aeruginosa
[12] = system: S. aureus GC 6467; test: MIC, broth microdilution; details: Staphylococcus aureus
[13] = system: S. aureus GC 2216; test: MIC, broth microdilution; details: Staphylococcus aureus
[14] = system: S. aureus GC 6335; test: MIC, broth microdilution; details: Staphylococcus aureus
[15] = system: E. faecalis GC 2267; test: MIC, broth microdilution; details: Enterococcus faecalis
[16] = system: E. faecalis GC 2242; test: MIC, broth microdilution; details: Enterococcus faecalis
[17] = system: E. faecium GC 4556; test: MIC, broth microdilution; details: Enterococcus faecium
[18] = system: S. pneumoniae* GC 4465; test: MIC, broth microdilution; details: Streptococcus pneumoniae
[19] = system: S. agalactiae GC 4564; test: MIC, broth microdilution; details: Streptococcus agalactiae
[20] = system: Staph. aureus Smith; test: In vivo activity (oral, iv; ED50) against Staph. aureus Smith in mice
[21] = GC2231, read-out: MINIMAL INHIBITORY CONCENTRATION MIC, pre-incubated in Mouse Serum
[22] = GC2231, read-out: MINIMAL INHIBITORY CONCENTRATION MIC, pre-incubated in Water
[23] = GC2235, read-out: MINIMAL INHIBITORY CONCENTRATION MIC, pre-incubated in Mouse Serum
[24] = GC2235, read-out: MINIMAL INHIBITORY CONCENTRATION MIC, pre-incubated in Water
[25] = GC2232, read-out: MINIMAL INHIBITORY CONCENTRATION MIC, pre-incubated in Mouse Serum
[26] = GC2232, read-out: MINIMAL INHIBITORY CONCENTRATION MIC, pre-incubated in Water
[27] = GC2270, read-out: MINIMAL INHIBITORY CONCENTRATION MIC, pre-incubated in Mouse Serum
[28] = GC2270, read-out: MINIMAL INHIBITORY CONCENTRATION MIC, pre-incubated in Water
[29] = GC2271, read-out: MINIMAL INHIBITORY CONCENTRATION MIC, pre-incubated in Mouse Serum
[30] = GC2271, read-out: MINIMAL INHIBITORY CONCENTRATION MIC, pre-incubated in Water
[31] = GC4559, read-out: MINIMAL INHIBITORY CONCENTRATION MIC, pre-incubated in Mouse Serum
[32] = GC4559, read-out: MINIMAL INHIBITORY CONCENTRATION MIC, pre-incubated in Water
[33] = GC4560, read-out: MINIMAL INHIBITORY CONCENTRATION MIC, pre-incubated in Mouse Serum
[34] = GC4560, read-out: MINIMAL INHIBITORY CONCENTRATION MIC, pre-incubated in Water
[35] = GC3226, read-out: MINIMAL INHIBITORY CONCENTRATION MIC, pre-incubated in Mouse Serum
[36] = GC3226, read-out: MINIMAL INHIBITORY CONCENTRATION MIC, pre-incubated in Water
[37] = GC2203, read-out: MINIMAL INHIBITORY CONCENTRATION MIC, pre-incubated in Mouse Serum
[38] = GC2203, read-out: MINIMAL INHIBITORY CONCENTRATION MIC, pre-incubated in Water
[39] = read-out: MINIMAL INHIBITORY CONCENTRATION MIC, pre-incubated in Mouse Serum
[40] = read-out: MINIMAL INHIBITORY CONCENTRATION MIC, pre-incubated in Water
[41] = GC2214, read-out: MINIMAL INHIBITORY CONCENTRATION MIC, pre-incubated in Mouse Serum
[42] = GC2214, read-out: MINIMAL INHIBITORY CONCENTRATION MIC, pre-incubated in Water
[43] = GC6467, read-out: MINIMAL INHIBITORY CONCENTRATION MIC, pre-incubated in Mouse Serum
[44] = GC6467, read-out: MINIMAL INHIBITORY CONCENTRATION MIC, pre-incubated in Water
[45] = GC2216, read-out: MINIMAL INHIBITORY CONCENTRATION MIC, pre-incubated in Mouse Serum
[46] = GC2216, read-out: MINIMAL INHIBITORY CONCENTRATION MIC, pre-incubated in Water
[47] = GC6335, read-out: MINIMAL INHIBITORY CONCENTRATION MIC, pre-incubated in Mouse Serum
[48] = GC6335, read-out: MINIMAL INHIBITORY CONCENTRATION MIC, pre-incubated in Water
[49] = GC2267, read-out: MINIMAL INHIBITORY CONCENTRATION MIC, pre-incubated in Mouse Serum
[50] = GC2267, read-out: MINIMAL INHIBITORY CONCENTRATION MIC, pre-incubated in Water
[51] = GC2242, read-out: MINIMAL INHIBITORY CONCENTRATION MIC, pre-incubated in Mouse Serum
[52] = GC2242, read-out: MINIMAL INHIBITORY CONCENTRATION MIC, pre-incubated in Water
[53] = GC4556, read-out: MINIMAL INHIBITORY CONCENTRATION MIC, pre-incubated in Mouse Serum
[54] = GC4556, read-out: MINIMAL INHIBITORY CONCENTRATION MIC, pre-incubated in Water
[55] = GC4564, read-out: MINIMAL INHIBITORY CONCENTRATION MIC, pre-incubated in Mouse Serum
[56] = GC4564, read-out: MINIMAL INHIBITORY CONCENTRATION MIC, pre-incubated in Water
[57] = Staphylococcus aureus, in Mus musculus, po, read-out: ED50 Staph Smith SOD
[58] = iv, read-out: ED50 Staph Smith SIV

| MIC [1, 21] | MIC [1, 22] | MIC [2, 23] | MIC [2, 24] | MIC [3, 25] | MIC [3, 26] | MIC [4, 27] | MIC [4, 28] | MIC [5, 29] | MIC [5, 30] | MIC [6, 31] | MIC [6, 32] | MIC [7, 33] | MIC [7, 34] | MIC [8, 35] | MIC [8, 36] | MIC [9, 37] | MIC [9, 38] | MIC [10, 39] | MIC [10, 40] | SMILES | also measured |
| --- | --- | --- | --- | --- | --- | --- | --- | --- | --- | --- | --- | --- | --- | --- | --- | --- | --- | --- | --- | --- | --- |
| 2 µg/mL (≈ 2.42 µM) | > 64 µg/mL | 0.5 µg/mL (≈ 0.605 µM) | > 64 µg/mL | 0.5 µg/mL (≈ 0.605 µM) | > 64 µg/mL | 0.5 µg/mL (≈ 0.605 µM) | > 64 µg/mL | 0.5 µg/mL (≈ 0.605 µM) | > 64 µg/mL | 1 µg/mL (≈ 1.21 µM) | > 64 µg/mL | 0.25 µg/mL (≈ 0.303 µM) | 64 µg/mL (≈ 77.5 µM) | 1 µg/mL (≈ 1.21 µM) | > 64 µg/mL | 0.5 µg/mL (≈ 0.605 µM) | > 64 µg/mL | 8 µg/mL (≈ 9.69 µM) | > 64 µg/mL | CCCN(CC(=O)Nc1cc(N(C)C)c2c(c1O)C(=O)C1=C(O)[C@]3(O)C(=O)C(C(N)=O)=C(O)[C@@H](N(C)C)[C@@H]3C[C@@H]1C2)C(=O)OCOC(=O)c1ccc(-c2ccccc2)cc1 [Example 24, ({[(2-{[(5aR,6aS,7S,10aS)-9-(aminocarbonyl)-4,7-bis(dimethylamino)-1,8,10a,11-tetrahydroxy-10,12-dioxo-5,5a,6,6a,7,10,10a,12-octahydrotetracen-2-yl]amino}-2-oxoethyl)(propyl)amino]carbonyl}oxy)methyl 1,1′-biphenyl-4-carboxylate] | MIC [11, 41]: 16 µg/mL (≈ 19.4 µM); MIC [11, 42]: > 64 µg/mL; MIC [12, 43]: 4 µg/mL (≈ 4.84 µM); MIC [12, 44]: > 64 µg/mL; MIC [13, 45]: 0.5 µg/mL (≈ 0.605 µM); MIC [13, 46]: 4 µg/mL (≈ 4.84 µM); MIC [14, 47]: 2 µg/mL (≈ 2.42 µM); MIC [14, 48]: 16 µg/mL (≈ 19.4 µM); MIC [15, 49]: 4 µg/mL (≈ 4.84 µM); MIC [15, 50]: 64 µg/mL (≈ 77.5 µM); MIC [16, 51]: 2 µg/mL (≈ 2.42 µM); MIC [16, 52]: 4 µg/mL (≈ 4.84 µM); MIC [17, 53]: 1 µg/mL (≈ 1.21 µM); MIC [17, 54]: 32 µg/mL (≈ 38.7 µM); MIC [18, 39]: < 0.06 µg/mL; MIC [18, 40]: < 0.06 µg/mL; MIC [19, 55]: 0.5 µg/mL (≈ 0.605 µM); MIC [19, 56]: 8 µg/mL (≈ 9.69 µM); ED50 [20, 57]: 27 mg/kg; ED50 [20, 58]: 0.59 mg/kg |
| 2 µg/mL (≈ 2.65 µM) | > 64 µg/mL | 1 µg/mL (≈ 1.32 µM) | 32 µg/mL (≈ 42.3 µM) | 1 µg/mL (≈ 1.32 µM) | > 64 µg/mL | 1 µg/mL (≈ 1.32 µM) | > 64 µg/mL | 1 µg/mL (≈ 1.32 µM) | 32 µg/mL (≈ 42.3 µM) | 2 µg/mL (≈ 2.65 µM) | > 64 µg/mL | 0.5 µg/mL (≈ 0.662 µM) | 2 µg/mL (≈ 2.65 µM) | 2 µg/mL (≈ 2.65 µM) | > 64 µg/mL | 1 µg/mL (≈ 1.32 µM) | > 64 µg/mL | 8 µg/mL (≈ 10.6 µM) | > 64 µg/mL | CCCN(CC(=O)Nc1cc(N(C)C)c2c(c1O)C(=O)C1=C(O)[C@]3(O)C(=O)C(C(N)=O)=C(O)[C@@H](N(C)C)[C@@H]3C[C@@H]1C2)C(=O)OCOC(=O)c1cccs1 [Example 25, ({[(2-{[(5aR,6aS,7S,10aS)-9-(aminocarbonyl)-4,7-bis(dimethylamino)-1,8,10a,11-tetrahydroxy-10,12-dioxo-5,5a,6,6a,7,10,10a,12-octahydrotetracen-2-yl]amino}-2-oxoethyl)(propyl)amino]carbonyl}oxy)methyl thiophene-2-carboxylate] | MIC [11, 41]: 32 µg/mL (≈ 42.3 µM); MIC [11, 42]: > 64 µg/mL; MIC [12, 43]: 2 µg/mL (≈ 2.65 µM); MIC [12, 44]: 2 µg/mL (≈ 2.65 µM); MIC [13, 45]: 0.5 µg/mL (≈ 0.662 µM); MIC [13, 46]: 1 µg/mL (≈ 1.32 µM); MIC [14, 47]: 0.5 µg/mL (≈ 0.662 µM); MIC [14, 48]: 0.5 µg/mL (≈ 0.662 µM); MIC [15, 49]: 2 µg/mL (≈ 2.65 µM); MIC [15, 50]: 4 µg/mL (≈ 5.29 µM); MIC [16, 51]: 2 µg/mL (≈ 2.65 µM); MIC [16, 52]: 2 µg/mL (≈ 2.65 µM); MIC [17, 53]: 1 µg/mL (≈ 1.32 µM); MIC [17, 54]: 4 µg/mL (≈ 5.29 µM); MIC [18, 39]: 0.12 µg/mL (≈ 0.159 µM); MIC [18, 40]: 0.25 µg/mL (≈ 0.331 µM); MIC [19, 55]: 0.5 µg/mL (≈ 0.662 µM); MIC [19, 56]: 0.5 µg/mL (≈ 0.662 µM); ED50 [20, 57]: 15.7 mg/kg; ED50 [20, 58]: 0.56 mg/kg |
